Assay results taken from ChEMBL document CHEMBL2021871, “The effects of diketopiperazines from Callyspongia sp. on release of cytokines and chemokines in cultured J774A.1 macrophages” (2012).
Activity calls are given as the source filed them. The rule behind the calls is not given here.

Legend:
Assay type in all cases: functional
J774.A1 [1] = assay: Induction of MCP-1 secretion in mouse J774A1 cells at 5 ug/mL after 48 hrs by ELISA relative to control
J774.A1 [2] = assay: Induction of IL10 secretion in mouse J774A1 cells at 5 ug/mL after 48 hrs by ELISA relative to control
J774.A1 [3] = assay: Induction of IFN-gamma secretion in mouse J774A1 cells at 5 ug/mL after 48 hrs by ELISA relative to control
J774.A1 [4] = assay: Induction of TNF-alpha secretion in mouse J774A1 cells at 5 ug/mL after 48 hrs by ELISA relative to control
J774.A1 [5] = assay: Reduction of TNF-alpha secretion in mouse J774A1 cells at 5 ug/mL after 48 hrs by ELISA relative to control; parameters: scale not given: the % may be the effect or the level left

SMILES: O=C1NCC(=O)N2CCC[C@@H]12 [CYCLO(PROLYLGLYCYL)]
- fold change (FC) (J774.A1 [1]): 1.86
- fold change (FC) (J774.A1 [2]): 1.29
- fold change (FC) (J774.A1 [3]): 3.5
- Activity (J774.A1 [4]): inactive

SMILES: CC(C)C[C@@H]1NC(=O)[C@H](Cc2ccc(O)cc2)NC1=O
- fold change (FC) (J774.A1 [1]): 2.24
- Activity (J774.A1 [5]): 88.3%
- Activity (J774.A1 [2]): inactive
- fold change (FC) (J774.A1 [3]): 1.82
- Activity (J774.A1 [4]): inactive

SMILES: O=C1N[C@@H](Cc2ccccc2)C(=O)N2CCC[C@@H]12
- fold change (FC) (J774.A1 [1]): 2.05
- fold change (FC) (J774.A1 [2]): 1.54
- fold change (FC) (J774.A1 [3]): 1.62
- Activity (J774.A1 [4]): inactive

SMILES: C[C@@H]1NC(=O)[C@@H]2C[C@@H](O)CN2C1=O
- fold change (FC) (J774.A1 [1]): 3.09
- fold change (FC) (J774.A1 [2]): 1.65
- fold change (FC) (J774.A1 [3]): 4.49
- fold change (FC) (J774.A1 [4]): 1.12

SMILES: C[C@@H]1NC(=O)[C@@H]2CCCN2C1=O
- fold change (FC) (J774.A1 [1]): 1.47
- fold change (FC) (J774.A1 [2]): 1.56
- fold change (FC) (J774.A1 [3]): 1.36
